Reference: patent publication US20260297105A1, “RAF-MEK PROTEIN COMPLEX MODULATORS AND METHODS OF USE THEREOF” (GANDEEVA THERAPEUTICS, INC., priority 2023, published 2026)

Columns and labels:
MEK1 = target: T1, MEK1 (Homo sapiens, UniProt Q02750); assay: MEK1 kinase cascade assay (ADP-Glo), inhibition of MEK1 kinase activity; type: biochemical; conditions: 25 nM BRAF, 6.25 nM MEK1, 0.5 μM ERK, 1 mM ATP; 20 min preincubation, 1 hr at 25° C.; read-out: BRAF ADP Glo kinase assay V3 (IC50)
T1 construct: purchased SignalChem M02-14H
T1 sequence (Q02750 whole entry): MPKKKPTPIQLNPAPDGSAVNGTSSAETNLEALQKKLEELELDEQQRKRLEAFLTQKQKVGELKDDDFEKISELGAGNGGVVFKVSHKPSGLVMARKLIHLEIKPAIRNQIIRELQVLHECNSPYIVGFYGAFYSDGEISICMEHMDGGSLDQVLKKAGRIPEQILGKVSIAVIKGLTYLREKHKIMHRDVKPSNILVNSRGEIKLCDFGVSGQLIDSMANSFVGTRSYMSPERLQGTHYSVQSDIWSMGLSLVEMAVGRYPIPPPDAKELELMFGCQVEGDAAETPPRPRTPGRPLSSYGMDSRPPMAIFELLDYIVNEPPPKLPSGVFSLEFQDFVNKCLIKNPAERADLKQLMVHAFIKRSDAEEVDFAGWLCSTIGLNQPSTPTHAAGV
T1 sequence (P15056 445-723 partner limits assumed): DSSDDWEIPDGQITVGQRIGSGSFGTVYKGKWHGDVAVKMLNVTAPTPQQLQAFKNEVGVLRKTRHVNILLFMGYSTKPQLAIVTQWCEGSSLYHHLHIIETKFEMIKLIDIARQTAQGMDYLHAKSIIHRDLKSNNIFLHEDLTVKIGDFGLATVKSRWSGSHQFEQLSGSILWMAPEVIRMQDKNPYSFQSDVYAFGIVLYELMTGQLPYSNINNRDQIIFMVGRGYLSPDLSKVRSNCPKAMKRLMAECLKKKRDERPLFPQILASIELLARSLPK
Outline: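 Compounds were preincubated 20 mins at 25° C with 25 nM BRAF(445-723) in 10 mM HEPES pH 7.5, 5 mM MgCl2, 2 mM CHAPS, 1 mM DTT, then 6.25 nM MEK1, 0.5 μM ERK1 and 1 mM ATP were added for 1 hr at 25° C, with 1% DMSO. ADP-Glo luminescence was normalized to DMSO and 1 μM Trametinib; IC50 came from 4-parameter fits of duplicates.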

BRAF-MEK1 = assay: BRAF-MEK TR-FRET assay, stabilization of MEK1 and BRAF interaction; type: binding; conditions: 4 nM BRAF, 10 nM MEK, 100 μM ATP; 1 hr at 25° C.; read-out: BRAF-MEK TR-FRET Assay (EC50, fold stabilization)
Outline: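 His-MEK1 (full-length, E. coli) at 10 nM with GST-BRAF at 4 nM, 1 h at 25° C in pH 7.5 Tris buffer with 5 mM MgCl2 and 100 μM ATP; anti-His-Tb/anti-GST-XL665 added for 1 h more. 665/620 FRET ratio over DMSO gives fold stabilization; EC50 from 4-parameter fit, duplicate wells.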

NCI-H292 cells = assay: Cell viability assay (CellTiter-Glo), NCI-H292; type: cell-based; conditions: Homo sapiens, 72 hrs, read-out: Cell Viability Assay: IC50 Determination NCI-H292
Method: Cell culture: HCTI 16, HT-29, and NCI-H292 cells were acquired from American Type Culture Collection (ATCC). HCT116 and HT-29 cells were maintained in ATCC-formulated McCoy's 5a Medium Modified supplemented with 10% fetal bovine serum, NCI-H292 cells were cultured in ATCC formulated RPMI-1640 supplemented with 10% fetal bovine serum. All cells were maintained at 37° C., 5% CO2.
Efficacy of exemplary compounds in inhibition of cell viability: HCT116 and HT-29 cells were plated at 4,000 cells per well and NCI-H292 cells were plated at 2,000 cells per well in their respective media in 384-well white, TC-treated plates (Corning). After 24 hours of incubation, the cells were treated with vehicle (DMSO) or test compounds (0.1% DMSO in final volume) for 72 hrs. The plate was equilibrated at room temperature for 10 mins followed by addition of a 1:1 volume of CellTiter-Glo® reagent (Promega). The contents were mixed for 2 mins on an orbital shaker to induce lysis. The plate was incubated at room temperature for 10 mins to stabilize luminescent signal before measuring luminescence on a Cytation5 microplate reader (Agilent). % inhibition as a function of compound concentration from 3 replicate wells was fit with a 4-parameter logistic curve using GraphPad Prism or CDD Vault to derive IC50 values.
In this table, for the BRAF ADP Glo kinase assay, “A” indicates IC50 of less than 5 nM; “B” indicates IC50 of between 5 nM to 50 nM; and “C” indicates IC50 of between 50 nM to 500 nM. “D” indicates IC50 of greater than 500 nM. For the BRAF-MEK TR-FRET assay, “A” indicates EC50 of less than 50 nM; “B” indicates EC50 of between 50 nM to 200 nM; and “C” indicates EC50 of between 200 nM to 1 μM. “D′” indicates EC50 of greater than 1 μM. For the AlphaLisa P-ERK assay, “A” indicates IC50 of less than 1 nM; “B” indicates IC50 of between 1 nM to 10 nM; and “C” indicates IC50 of between 10 nM to 100 nM. “D” indicates IC50 of greater than 100 nM. For the cell viability assay, “A” indicates IC50 of less than 1 nM; “B” indicates IC50 of between 1 nM to 10 nM; and “C” indicates IC50 of between 10 nM to 100 nM. “D” indicates IC50 of greater than 100 nM.

| SMILES | IC50 (MEK1) [nM] | EC50 (BRAF-MEK1) [nM] | IC50 (NCI-H292 cells) [nM] |
| --- | --- | --- | --- |
| C[C@@H]1c2ccc(Oc3cccnn3)c(F)c2OC(=O)N1Cc1cccc(NS(=O)(=O)N(C)C)c1F (single isomer, unassigned) [Compound 43] | < 5 | < 50 | 1 to 10 |
| CNS(=O)(=O)Nc1cccc(CN2C(=O)Oc3cc(Oc4cccnn4)cc(F)c3[C@@H]2C)c1F (single isomer, unassigned) [Compound 56] | 5 to 50 | 200 to 1000 | 10 to 100 |
| CNS(=O)(=O)Nc1cccc(CN2C(=O)Oc3cc(Oc4ncco4)ccc3[C@@H]2C)c1F (single isomer, unassigned) [Compound 78, (S)-3-({2-fluoro-3-(methylsulfamoyl)amino]phenyl}methyl)-4-methyl-7-(1,3-oxazol-2-yloxy)-3,4-dihydro-2H-1,3-benzoxazin-2-one or (R)-3-({2-fluoro-3-(methylsulfamoyl)amino]phenyl}methyl)-4-methyl-7-(1,3-oxazol-2-yloxy)-3,4-dihydro-2H-1,3-benzoxazin-2-one] | 5 to 50 | 200 to 1000 | 10 to 100 |
| CNS(=O)(=O)Nc1cccc(CN2C(=O)Oc3cc(Oc4ncco4)ccc3[C@H]2C)c1F (single isomer, unassigned) [Compound 79, (R)-3-({2-fluoro-3-(methylsulfamoyl)amino]phenyl}methyl)-4-methyl-7-(1,3-oxazol-2-yloxy)-3,4-dihydro-2H-1,3-benzoxazin-2-one or (S)-3-({2-fluoro-3-(methylsulfamoyl)amino]phenyl}methyl)-4-methyl-7-(1,3-oxazol-2-yloxy)-3,4-dihydro-2H-1,3-benzoxazin-2-one] | 5 to 50 | – | 10 to 100 |
| CNS(=O)(=O)Nc1cccc(CN2C(=O)Oc3c(ccc(OC(=O)N(C)C)c3F)[C@@H]2C)c1F (single isomer, unassigned) [Compound 103, (S)-8-fluoro-3-(2-fluoro-3-((N-methylsulfamoyl)amino)benzyl)-4-methyl-2-oxo-3,4-dihydro-2H-benzo[e][1,3]oxazin-7-yl dimethylcarbamate or (R)-8-fluoro-3-(2-fluoro-3-((N-methylsulfamoyl)amino)benzyl)-4-methyl-2-oxo-3,4-dihydro-2H-benzo[e][1,3]oxazin-7-yl dimethylcarbamate] | 5 to 50 | 200 to 1000 | 1 to 10 |
| CNS(=O)(=O)Nc1cccc(CN2C(=O)Oc3cc(OC(=O)N(C)C)ccc3C23CCC3)c1F [Compound 38, 3-({2-fluoro-3-[(methylsulfamoyl)amino]phenyl}methyl)-2-oxo-2,3-dihydrospiro[1,3-benzoxazine-4,1′-cyclobutan]-7-yl N,N-dimethylcarbamate] | < 5 | < 50 | < 1 |
| [2H]C1([2H])c2ccc(Oc3cccnn3)cc2OC(=O)N1Cc1cccc(NS(=O)(=O)N(C)C)c1F [Compound 39, 3-{[3-(dimethylaminosulfonylamino)-2-fluorophenyl]methyl}-7-(3-pyridazinyloxy)(4,4-^2H2)-3,4-dihydro-2H-1,3-benzoxazin-2-one] | 5 to 50 | < 50 | 1 to 10 |
| CNS(=O)(=O)Nc1cccc(CN2C(=O)Oc3cc(Oc4cccnn4)ccc3C2(C)C)c1F [Compound 51, 3-({2-fluoro-3-[(methylsulfamoyl)amino]phenyl}methyl)-4,4-dimethyl-7-(pyridazine-3-yloxy)-3,4-dihydro-2H-1,3-benzoxazin-2-one] | 5 to 50 | 200 to 1000 | 10 to 100 |
| CNS(=O)(=O)Nc1cccc(CN2C(=O)Oc3cc(Oc4ncco4)c(F)cc3C23COC3)c1F [Compound 73] | 5 to 50 | – | 1 to 10 |
| CNS(=O)(=O)Nc1cccc(CN2C(=O)Oc3cc(Oc4ncco4)ccc3C2(C)C)c1F [Compound 74, 3-({2-fluoro-3-[(methylsulfamoyl)amino]phenyl}methyl)-4,4-dimethyl-7-(1,3-oxazol-2-yloxy)-3,4-dihydro-2H-1,3-benzoxazin-2-one] | 5 to 50 | – | 1 to 10 |
